From patent US3996360A, “Piperazine compounds” (Knoll A.G. Chemische Fabriken, priority 1974, dated 1976)
Like-named read-outs stand apart in the source and are kept apart here.

Legend:
[1] = system: left auricle of the guinea pig; assay: Functional refractory period of the left auricle, paired electrical stimulation (method of Govier); conditions: for percent lengthening of refractory period at 0.01 µM: Cavia porcellus, read-out: Antiarrhythmic Effect (Lengthening of the refractory period in percent); for percent lengthening of refractory period at 0.01 µM / Antiarrhythmic Effect (Lengthening of the refractory period in percent): Table 2, dose in each case 10^^-5 millimoles/liter; for Antiarrhythmic Effect (Lengthening of the Refractory Period) ED25: Table 1, effective dose which lengthens the refractory period by 25 percent
Text: Evidence of the anti-arrhythmic effect of the new compounds is obtained in experimental animals by determination of the functional refractory period of the left auricle of the guinea pig with the aid of paired electrical stimulation employing the method of W. C. Govier, J. Pharmacol. Exp. Therap. 148, 100 - 105 (1965). In this experimental arrangement, those anti-arrhythmic agents already known for use in therapy, of differing structure and of different points of attack in the human, all distinguish themselves by lengthening the functional refractory period. The method additionally permits a determination of the effects of the substances on the contractile force of the heart muscle [cf. Reuter and Heeg, Naunyn-Schmiedeberg's Arch. Pharmak. 268, 323 - 333 (1971) and Zettler and Strubelt, Naunyn-Schmiedeberg's Arch. Pharmak. 271, 335 - 345 (1971)].
The testing of the substances in each case involves up to thirty individual experiments. For the dosage effect relationships, linear regression functions were calculated [A. Lindner, Statistische Methoden, 3rd Edition, Birkhaeuser Verlag, Basel (1969)], wherein the maximum percentage deviations from the starting value over a period of up to 60 minutes after addition of the test substance to the bath fluid were employed.
In following Table 1, column I, the optical isomers of one of the compounds of the invention and known anti-arrhythmic agents are named. Column II reports their anti-arrhythmic effect. Column III gives the inotropic effect, and column IV represents the therapeutic breadth of the compounds. The ED25 is the effective dose which lengthens the refractory period by 25 percent or reduces the contractile force by 25 percent.
The dose in each case is 10^^-5 millimoles/liter.

[2] = system: disturbances of the heart-beat rhythm; assay: Aconitine-induced disturbances of the heart rhythm, long term effect after peroral treatment; assay type: in vivo; conditions: rats, perorally 400 mg/kg, eight hours after administration, vs untreated animals
Text: (§1) The anti-arrhythmic effect of the new compounds can also be determined in intact test animals by experimentally-induced disturbances of the heart rhythm. If rats are continually infused intravenously with aconitine, serious disturbances of the heart-beat rhythm, such as extrasystoles, ventricular tachycardia, and ventricular flutter, which disturbances eventually lead to the death of the test animals, are evident in an electrocardiogram. […] Bianchi et al., Arzneim. Forsch. 18, 845 - 850 (1968); Haas and Busch, Arzneim. Forsch. 18, 401 - 407 (1968); Haas et al., Arzneim. Forsch. 21, 1392 - 1399 (1971); Marmo, Naunyn-Schmiedeberg's Arch. Pharmak. 269, 231 - 247 (1971); Strubelt et al., Naunym-Schmiedeberg's Arch. Pharmak. 271, 346 - 360 ( 1971)].

[3] = system: left auricle of the guinea pig; assay: Inotropic effect: contractile force of the heart muscle (left auricle); conditions: Table 1; for Inotropic Effect (Decrease in Contractile Force) ED25: effective dose which reduces the contractile force by 25 percent; for Therapeutic Breadth (III/II): ratio inotropic ED25 / antiarrhythmic ED25
Text: (§2) Evidence of the anti-arrhythmic effect of the new compounds is obtained in experimental animals by determination of the functional refractory period of the left auricle of the guinea pig with the aid of paired electrical stimulation employing the method of […]. Pharmacol. Exp. Therap. 148, 100 - 105 (1965). In this experimental arrangement, those anti-arrhythmic agents already known for use in therapy, of differing structure and of different points of attack in the human, all distinguish themselves by lengthening the functional refractory period. The method additionally permits a determination of the effects of the substances on the contractile force of the heart muscle [cf. Reuter and Heeg, Naunyn-Schmiedeberg's Arch. Pharmak. 268, 323 - 333 (1971) and Zettler and Strubelt, Naunyn-Schmiedeberg's Arch. Pharmak. 271, 335 - 345 (1971)]. The testing of the substances in each case involves up to thirty individual experiments. For the dosage effect relationships, linear regression functions were calculated [[…] Methoden, 3rd Edition, Birkhaeuser Verlag, Basel (1969)], wherein the maximum percentage deviations from the starting value over a period of up to 60 minutes after addition of the test substance to the bath fluid were employed. In following Table 1, column I, the optical isomers of one of the compounds of the invention and known anti-arrhythmic agents are named. Column II reports their anti-arrhythmic effect. Column III gives the inotropic effect, and column IV represents the therapeutic breadth of the compounds. The ED25 is the effective dose which lengthens the refractory period by 25 percent or reduces the contractile force by 25 percent.

[4] = system: disturbances of the heart-beat rhythm; assay: Aconitine-induced disturbances of the heart rhythm, intravenous pretreatment; assay type: in vivo, rats; conditions: for ED25 / ED50: Rattus norvegicus; for Ventricular Flutter ED25: dose raising administered aconitine dose by 25 percent prior to ventricular flutter; for Ventricular Flutter ED50: dose raising administered aconitine dose by 50 percent prior to ventricular flutter
Text: as §1
The ED25 and ED50 are the intravenous doses, in mg/kg, which raise the administered aconitine doses, in comparison with the aconitine control, by 25 percent or 50 percent prior to the appearance of extrasystoles, ventricular tachycardia, and ventricular flutter.

[5] = Inotropic effect: contractile force of the heart muscle (left auricle); set-up: species or system guinea pig; conditions: guinea pig, left auricle, Table 1; ratio inotropic ED25 / antiarrhythmic ED25; read-out: Therapeutic Breadth (III/II)
Text: as §2

[6] = intravenous, dose raising administered aconitine dose by 25 percent prior to ventricular tachycardia, read-out: Ventricular Tachycardia ED25
[7] = intravenous, dose raising administered aconitine dose by 50 percent prior to ventricular tachycardia, read-out: Ventricular Tachycardia ED50

## COc1ccc(CC2(C)CN(C(c3ccccc3)c3ccc(Cl)cc3)CCN2CCO)cc1OC (stereo not drawn) [1-(p-chlorophenyl-phenylmethyl)-3-methyl-3-(3,4-dimethoxybenzyl)-4-hydroxyethyl-piperazine]
[1]
  percent lengthening of refractory period at 0.01 µM: 55%

## COc1ccc(CC2(C)CN(C(c3ccccc3)c3ccc(Cl)cc3)CCN2)cc1OC (stereo not drawn) [1-(p-chlorophenyl-phenylmethyl)-3-methyl-3-(3,4-dimethoxybenzyl)-piperazine]
[1]
  percent lengthening of refractory period at 0.01 µM: 28%

## COc1ccc(CC2(C)CN(C(c3ccccc3)c3ccccc3)CCN2CCO)cc1OC (stereo not drawn) [1-diphenylmethyl-3-methyl-3-(3,4-dimethoxybenzyl)-4-hydroxyethylpiperazine]
[1]
  percent lengthening of refractory period at 0.01 µM: 55%

## COc1ccc(CC2(C)CN(C(c3ccccc3)c3ccccc3)CCN2C)cc1OC (stereo not drawn) [1-diphenylmethyl-3-methyl-3-(3,4-dimethoxybenzyl)-4-methyl-p] [1-diphenylmethyl-3-methyl-3-(3,4-dimethoxybenzyl)-4-methyl-piperazine]
[1]
  Antiarrhythmic Effect (Lengthening of the refractory period in percent): 64%

## COc1ccc(CC2(C)CN(C(c3ccccc3)c3ccccc3)CCN2)cc1OC (stereo not drawn) [1-diphenylmethyl-3-methyl-3-(3,4-dimethoxybenzyl)-piperazine] [listing 1 of 2 here]
[1]
  percent lengthening of refractory period at 0.01 µM: 46%

## COc1ccc(CC2(C)CN(C(c3ccccc3)c3ccccc3)CCN2)cc1OC (stereo not drawn) [1-diphenylmethyl-3-methyl-3-(3,4-dimethoxybenzyl)-piperazine] [listing 2 of 2 here]
[1]
  effectiveness (in words): outstanding

## CCN1CCN(C(c2ccccc2)c2ccccc2)CC1(C)Cc1ccc(OC)c(OC)c1 (stereo not drawn) [(D)-1-diphenylmethyl-3-methyl-3-(3,4-dimethoxybenzyl)-4-ethy] [(D)-1-diphenylmethyl-3-methyl-3-(3,4-dimethoxybenzyl)-4-ethyl-piperazine]
[1]
  Antiarrhythmic Effect (Lengthening of the refractory period in percent): 50%

## COc1ccc(CC2(C)CN(C(c3ccccc3)c3ccccc3)CCN2CCO)cc1OC (stereo not drawn) [(D)-1-diphenylmethyl-3-methyl-3-(3,4-dimethoxybenzyl)-4-hydr] [(D)-1-diphenylmethyl-3-methyl-3-(3,4-dimethoxybenzyl)-4-hydroxyethyl-piperazine]
[1]
  Antiarrhythmic Effect (Lengthening of the refractory period in percent): 72%

## COc1ccc(CC2(C)CN(C(c3ccccc3)c3ccccc3)CCN2C)cc1OC (stereo not drawn) [(D)-1-diphenylmethyl-3-methyl-3-(3,4-dimethoxybenzyl)-4-meth] [(D)-1-diphenylmethyl-3-methyl-3-(3,4-dimethoxybenzyl)-4-methyl-piperazine]
[1]
  Antiarrhythmic Effect (Lengthening of the Refractory Period) ED25: 0.0063
  Antiarrhythmic Effect (Lengthening of the refractory period in percent): 50%
[2]
  higher dose of aconitine required before the appearance of extrasystoles: 68%
  higher dose of aconitine required before the appearance of ventricular flutter: 70%
  higher dose of aconitine required before the appearance of ventricular tachycardia: 75%
[3]
  Inotropic Effect (Decrease in Contractile Force) ED25: 0.0093

## COc1ccc(CC2(C)CN(C(c3ccccc3)c3ccccc3)CCN2C)cc1OC (stereo not drawn) [(D)-1-diphenylmethyl-3-methyl-3-(3,4-dimethoxybenzyl)-4-methyl-piperazine]
[4]; iv, read-out: Extrasystoles ED25
  ED25: 0.94 mg/kg
[4]; iv, read-out: Extrasystoles ED50
  ED50: 1.21 mg/kg
[4]; iv, read-out: Ventricular Flutter ED25
  ED25: 0.84 mg/kg
[4]; iv, read-out: Ventricular Flutter ED50
  ED50: 1.23 mg/kg
[4]; iv, read-out: Ventricular Tachycardia ED25
  ED25: 0.94 mg/kg
[4]; iv, read-out: Ventricular Tachycardia ED50
  ED50: 1.26 mg/kg
[5]
  selectivity ratio: 1.5

## CCCCN1CCN(C(c2ccccc2)c2ccccc2)CC1(C)Cc1ccc(OC)c(OC)c1 (stereo not drawn) [(D)-1-diphenylmethyl-3-methyl-3-(3,4-dimethoxybenzyl)-4-n-butyl-piperazine]
[1]
  percent lengthening of refractory period at 0.01 µM: 31%

## CCCN1CCN(C(c2ccccc2)c2ccccc2)CC1(C)Cc1ccc(OC)c(OC)c1 (stereo not drawn) [(D)-1-diphenylmethyl-3-methyl-3-(3,4-dimethoxybenzyl)-4-n-propyl-piperazine]
[1]
  percent lengthening of refractory period at 0.01 µM: 51%

## COc1ccc(CC2(C)CN(C(c3ccccc3)c3ccccc3)CCN2)cc1OC (stereo not drawn) [(D)-1-diphenylmethyl-3-methyl-3-(3,4-dimethoxybenzyl)-pipera] [(D)-1-diphenylmethyl-3-methyl-3-(3,4-dimethoxybenzyl)-piperazine]
[1]
  Antiarrhythmic Effect (Lengthening of the refractory period in percent): 31%

## CCN1CCN(C(c2ccccc2)c2ccccc2)CC1(C)Cc1ccc(OC)c(OC)c1 (stereo not drawn) [(L)-1-diphenylmethyl-3-methyl-3-(3,4-dimethoxybenzyl)-4-ethyl-piperazine]
[1]
  percent lengthening of refractory period at 0.01 µM: 48%

## COc1ccc(CC2(C)CN(C(c3ccccc3)c3ccccc3)CCN2C)cc1OC (stereo not drawn) [(L)-1-diphenylmethyl-3-methyl-3-(3,4-dimethoxybenzyl)-4-meth] [(L)-1-diphenylmethyl-3-methyl-3-(3,4-dimethoxybenzyl)-4-methyl-piperazine]
[1]
  Antiarrhythmic Effect (Lengthening of the Refractory Period) ED25: 0.0056
  Antiarrhythmic Effect (Lengthening of the refractory period in percent): 73%
[3]
  Inotropic Effect (Decrease in Contractile Force) ED25: 0.0052
  Therapeutic Breadth (III/II): 0.9

## CC[C@H]1[C@@H]2C[C@H]3[C@@H]4N(C)c5ccccc5[C@]45C[C@@H]([C@@H]2[C@H]5O)N3[C@@H]1O [Ajmaline, reference compound]
[1]
  percent lengthening of refractory period at 0.01 µM: 14%

## c1ccc(CN(CC2=NCCN2)c2ccccc2)cc1 [Antazoline, reference compound]
[1]
  Antiarrhythmic Effect (Lengthening of the Refractory Period) ED25: 0.164
[3]
  Inotropic Effect (Decrease in Contractile Force) ED25: 0.094
[5]
  selectivity ratio: 0.6

## CCC[N+]12[C@H](O)[C@@H](CC)[C@@H]3C[C@H]1[C@@H]1N(C)c4ccccc4[C@]14C[C@H]2[C@@H]3[C@H]4O [N-n-propylajmaline, reference compound]
[1]
  Antiarrhythmic Effect (Lengthening of the Refractory Period) ED25: 0.0037
[3]
  Inotropic Effect (Decrease in Contractile Force) ED25: 0.0015
  Therapeutic Breadth (III/II): 0.4

## CCN(CC)CCNC(=O)c1ccc(N)cc1 [Procainamide]
[4]; intravenous, dose raising administered aconitine dose by 25 percent prior to extrasystoles, read-out: Extrasystoles ED25
  ED25: 6.8 mg/kg
[4]; [6]
  ED25: 6.8 mg/kg
[4]; intravenous, dose raising administered aconitine dose by 50 percent prior to extrasystoles, read-out: Extrasystoles ED50
  ED50: 52.6 mg/kg
[4]; [7]
  ED50: 29.1 mg/kg
[4]; intravenous
  Ventricular Flutter ED25: +
  Ventricular Flutter ED50: +
[2]
  higher dose of aconitine required before the appearance of extrasystoles: 16%
  higher dose of aconitine required before the appearance of ventricular flutter: 29%
  higher dose of aconitine required before the appearance of ventricular tachycardia: 12%

## C1CCN2C[C@@H]3C[C@@H](CN4CCCC[C@@H]34)[C@H]2C1 [Sparteine]
[4]; [6]
  ED25: 4.4 mg/kg
[4]; [7]
  ED50: 9.5 mg/kg
[4]; intravenous, dose raising administered aconitine dose by 25 percent prior to extrasystoles
  Extrasystoles ED25: +
[4]; intravenous
  Ventricular Flutter ED25: +
  Ventricular Flutter ED50: +
[4]; intravenous, dose raising administered aconitine dose by 50 percent prior to extrasystoles
  Extrasystoles ED50: +
